This assay concerns the target T1, MetAP-2 (Mus musculus, UniProt O08663).
T1 construct: from tissue; host or cells: adipose tissue of diet-induced obese mice
The assay can be described thus: ELISA assay of MetAP-2 binding (free MetAP-2) in adipose tissue lysates of dosed diet-induced obese mice. On the procedure:
Diet-induced obese mice were orally (p.o.) administered fumagillin (3 mg/kg or 10 mg/kg; Medivet), subcutaneously administered (s.c.) TNP-470 (1 mg/kg, 3 mg/kg, 10 mg/kg, or 30 mg/kg; synthesized by standard semi-synthetic processes as described in European Patent EP 0 357 061), or administered a solution of 10% dimethyl sulfoxide (DMSO; control; Sigma-Aldrich). Mice were sacrificed and adipose tissue samples were obtained.
An ELISA assay of MetAP-2 binding was conducted with tissue lysates prepared from the adipose tissue samples. The MetAP-2 ELISA is a quantitative assay to determine the amount of free MetAP-2 in tissue or cell lysates, i.e., MetAP-2 not covalently bound to fumagillin or TNP-470. The assay takes advantage of the fact that biotinylated fumagillin can bind to the catalytic site of the MetAP-2 enzyme only if this site has not already been derivatized by fumagillin or TNP-470. The biotinylated MetAP-2-inhibitor complex was captured on a streptavidin-coated plate and detected with a rabbit anti-MetAP-2 antibody (Zymed Laboratories Inc.). Horseradish peroxidase-conjugated anti-rabbit immunoglobulin G (IgG) was added to detect the MetAP-2 antibody immobilized to the streptavidin-coated plate with its covalently bound biotinylated fumagillin. Tetramethylbenzidine (TMB) substrate was added and the reaction was stopped by addition of sulfuric acid. Analysis was performed by determining absorption at 450 nm. Human recombinant MetAP-2 (R&D Systems), pre-bound to biotinylated fumagillin, was used to generate a standard curve.

T1 sequence (O08663 whole entry): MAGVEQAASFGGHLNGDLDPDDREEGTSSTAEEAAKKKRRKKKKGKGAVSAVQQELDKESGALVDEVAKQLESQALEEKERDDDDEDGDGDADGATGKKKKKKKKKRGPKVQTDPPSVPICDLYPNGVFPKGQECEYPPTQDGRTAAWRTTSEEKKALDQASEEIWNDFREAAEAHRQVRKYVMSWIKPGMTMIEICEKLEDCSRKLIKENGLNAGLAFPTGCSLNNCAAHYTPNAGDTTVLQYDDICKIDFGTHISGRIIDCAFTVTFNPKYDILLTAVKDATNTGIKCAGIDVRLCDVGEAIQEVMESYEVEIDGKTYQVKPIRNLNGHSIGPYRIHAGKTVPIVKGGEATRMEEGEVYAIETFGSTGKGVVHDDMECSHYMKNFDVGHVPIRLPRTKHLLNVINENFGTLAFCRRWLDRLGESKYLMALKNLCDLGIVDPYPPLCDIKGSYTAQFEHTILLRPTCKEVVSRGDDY

Take `CO[C@@H]1[C@H](OC(=O)NC(=O)CCl)CC[C@]2(CO2)[C@H]1[C@@]1(C)O[C@@H]1CC=C(C)C` [TNP-470]: the “binding to MetAP-2 in adipose tissue” value (TNP-470 subcutaneously 1, 3, 10 or 30 mg/kg, diet-induced obese mice, FIG. 1) is listed as “binds MetAP-2 in a dose dependent manner”. Further, the “binding to MetAP-2 in adipose tissue compared to orally administered fumagillin at the same dosages” value (s.c. TNP-470 vs p.o. fumagillin, 3 mg/kg and 10 mg/kg) is “greater binding”.
